Values of other authors in patent US7354941B2, “Nicotinamide benzofused-heterocyclyl derivatives useful as selective inhibitors of PDE4 isozymes” (Pfizer Products Inc., priority 2000, dated 2008).
Where two headings read alike, the source gives them in different places.

Experiments:
guinea-pig lung PDE4 = details: cited from earlier work
bone marrow culture = details: cited from earlier work
[1] = test system: lipopolysaccharide-induced bowel erythrocyte extravasation; details: cited from earlier work; for lipopolysaccharide-induced bowel erythrocyte extravasation: pretreatment i.p. 3×, rats; for lipopolysaccharide induced erythrocyte extravasation in rats and intestinal hypoperfusion in dogs: rat, in vivo
bone loss = details: serial oral administrations; cited from earlier work
[2] = test system: lipopolysaccharide-induced mesenteric blood flow fall; details: dog, in vivo; cited from earlier work
[3] = test system: human peripheral blood mononuclear cells (HPBM); details: normal patients and subjects with atopic dermatitis; cited from earlier work
TNFproduction = details: read-out: IC50, TNF production; cited from earlier work
PDE4 = details: cited from earlier work
bronchitis = details: in vivo; cited from earlier work
[4] = test system: patients with bronchial asthma; details: cited from earlier work
[5] = test system: high-affinity rolipram binding site (Sr); details: cited from earlier work
catalytic site (Sc) = details: compared with SB-207,499; cited from earlier work
[6] = standard in vitro guinea-pig models of asthma; cited from earlier work
canine tracheal PDE4 = details: at 100 nM; cited from earlier work
[7] = test system: PDE4 derived from tumor cells; details: cited from earlier work
tumor cells = details: cited from earlier work
[8] = test system: LPS-stimulated ex vivo TNF release and PHA induced lymphocyte proliferation; details: oral dose of 300 mg; cited from earlier work
[9] = test system: antigen-induced bronchoconstriction; details: guinea-pig; cited from earlier work
PDE4 in U937 cells = details: cited from earlier work
[10] = rat; cited from earlier work
[11] = 54 subjects, doses up to 400 mg; cited from earlier work
[12] = rat; cited from earlier work; remark: listed apart in the source
[13] = test system: antigen-induced eosinophilia; details: rat; cited from earlier work
[14] = test system: experimental allergic encephalomyelitis; details: marmoset; cited from earlier work
[15] = test system: isolated pulmonary artery rings; details: rings from normal rats and rats with hypoxia-induced pulmonary hypertension; cited from earlier work
[16] = test system: T-cell mediated hepatic failure; details: cited from earlier work
[17] = test system: chronic relapsing experimental allergic encephalomyelitis; details: SJL mice; cited from earlier work
PBMC = details: cited from earlier work
[18] = test system: croton oil-induced ear inflammation; details: mouse; cited from earlier work
colitis = details: rat; cited from earlier work
[19] = test system: collagen II induced arthritis; details: cited from earlier work
[20] = test system: early phase bronchoconstriction; details: in vivo; cited from earlier work

SMILES: CCOc1cc2cc(CO)c(CO)c(-c3ccnc(-n4nc(-c5cccnc5)c5ccccc5c4=O)c3)c2cc1OCC [Example T-2585]
- IC50 (guinea-pig lung PDE4): 0.13 nM

SMILES: CCCCn1c(=O)c2c(ncn2CC(C)=O)n(CCCC)c1=O [denbufylline]
- mineralized nodules and osteoclast-like cells (bone marrow culture): increase in the number of mineralized nodules and a decrease in the number of osteoclast-like cells
- lipopolysaccharide-induced bowel erythrocyte extravasation [1]: reduces lipopolysaccharide-induced bowel erythrocyte extravasation
- lipopolysaccharide induced erythrocyte extravasation in rats and intestinal hypoperfusion in dogs [1]: attenuated
- bone mineral density of femurs (bone loss): inhibit the decrease in the bone mineral density of femurs
- potency relative to pentoxifylline in inhibiting mesenteric blood flow fall [2]: 100 fold
- inhibition of the proliferation of HPBM [3]: concentration-related inhibition

SMILES: COc1ccc(C(CC(N)=O)N2C(=O)c3ccccc3C2=O)cc1OC1CCCC1 (centres unmarked) [(0.0.32)]
- IC50 (TNFproduction): 130 nM
- IC50 (PDE4): 0.042 nM

SMILES: Cc1c[n+]([O-])ccc1CC(c1ccc(C(O)(C(F)(F)F)C(F)(F)F)cc1)c1ccc(OC(F)F)c(OC(F)F)c1 [L-826,141]
- activity in a rat model of bronchitis (bronchitis): activity

SMILES: COc1ccc([C@H](Cc2ccncc2)c2ccccc2)cc1OC1CCCC1 [CDP840]
- late reactions to inhaled allergen ([4]; 9.5 days oral, 15 and 30 mg): suppression of late reactions to inhaled allergen
- adverse events of nausea or headache ([4]; human, in vivo): without any adverse events of nausea or headache
- late-phase response in the treatment of asthma ([4]; human, in vivo): significant inhibition of late-phase response
- affinity at the Sr [5]: comparatively low affinity at the Sr
- potency at the Sc (catalytic site (Sc)): significantly higher potency at the Sc than does SB-207,499

SMILES: O=C(Nc1c(Cl)cncc1Cl)c1ccc(OC(F)F)c(OCC2CC2)c1 [Roflumilast]
- IC50 [6]: 3.5 nM

SMILES: COc1ccc(C(=O)Cc2c(Cl)c[n+]([O-])cc2Cl)c2c1OCCCCO2 [(0.0.49)]
- inhibition of canine tracheal PDE4 (canine tracheal PDE4): almost complete inhibition

SMILES: Clc1nc2c(N3CCCC3)nc(N3CCNCC3)nc2nc1NCc1ccccc1 [(0.0.55)]
- IC50 [7]: 16 nM
- growth of tumor cells (tumor cells): inhibit the growth of tumor cells at micromolar concentrations

SMILES: CCNc1ncn(Cc2ccc(OC)c(OC3CCCC3)c2)c2nc(C(C)C)nc1-2 [Example V-11294A]
- TNF levels and lymphocyte proliferation [8]: effective in reducing TNF levels and lymphocyte proliferation
- inhibition of antigen-induced bronchoconstriction [9]: active

SMILES: Cc1cc2c3c(c1)C(c1ccccc1)=N[C@@H](NC(=O)c1ccncc1)C(=O)N3CC2 [CI-1018]
- IC50 (PDE4 in U937 cells): 1100 nM
- ED50, oral potency [10]: 5 mg/kg
- adverse events [11]: no adverse events were reported
- oral bioavailability [12]: 57%
- inhibition of antigen-induced eosinophilia [13]: active

SMILES: COc1ccc(C2CNC(=O)C2)cc1OC1CCCC1 (centres unmarked) [rolipram]
- clinical signs and MRI abnormalities [14]: suppress the appearance of clinical signs and abolish abnormalities in MRI imaging
- relaxant activities of isoproterenol and forskolin [15]: potentiates the relaxant activities of isoproterenol and forskolin
- lipopolysaccharide-induced bowel erythrocyte extravasation [1]: reduces lipopolysaccharide-induced bowel erythrocyte extravasation
- lipopolysaccharide induced erythrocyte extravasation in rats and intestinal hypoperfusion in dogs [1]: attenuated
- plasma TNF-α and INF-γ concentrations ([16]; 0.1 to 10 mg/kg i.p. 30 minutes before challenge): significantly reduce plasma TNF-α and INF-γ concentrations
- IL-10 levels ([16]; 0.1 to 10 mg/kg i.p.): significantly elevates IL-10 levels
- plasma activities of ALT, AST, and SDH ([16]; 0.1 to 10 mg/kg i.p.): dose-dependently inhibited
- concanavalin A-induced IL4 release ([16]; mouse, in vivo): suppress concanavalin A-induced IL4 release
- clinical signs and pathological changes [17]: ameliorates clinical signs and pathological changes
- IC50 (PBMC; PHA stimulated atopic dermatitis PBMC proliferation): 280 nM
- IC50 (PBMC; PHA stimulated normal PBMC proliferation): 2600 nM
- topical doses inhibiting croton oil-induced ear inflammation (as low as) [18]: 0.03 mg per ear
- effects in dextran sulfate induced colitis model (colitis): beneficial effects comparable to prednisolone
- appearance of arthritic symptoms ([19]; 2 mg/kg twice daily for five days before the onset of arthritis): significantly delayed the appearance of arthritic symptoms
- development of the disease, arthritis severity ([19]; 3 mg/kg twice daily when arthritis was apparent): progression of severity was halted
- TNF-α and IFN mRNA expression in regional lymph nodes ([19]; rat, in vivo): strong down-regulation of TNF-α and IFN7 mRNA expression
- inhibition of the proliferation of HPBM [3]: concentration-related inhibition

SMILES: CCOc1cc2cc(CO)c(CO)c(-c3ccn(CCOC)c(=O)c3)c2cc1OCC [Example T-440]
- inhibition of early and late phase bronchoconstriction, BAL eosinophilia, ozone-induced AHR and airway epithelial injury [20]: activity
